Common to all, as to format: in vivo, Sprague-Dawley rats
The subject of data set [1] is DB rats. Kind of data set: Schirmer test of tear production in STZ-diabetic (DB) rats after topical treatment. Here is the method:
(§1) Male Sprague-Dawley rats (˜245 g) were obtained from Charles River Laboratories (Wilmington, Mass.) and housed under standard laboratory conditions. All investigations conformed to the regulations of the ARVO, National Institutes of Health, and the guidelines of the Department of Comparative Medicine of The Pennsylvania State University.
(§2) Briefly, an intraperitoneal (i.p.) injection of 40 mg/kg streptozotocin (STZ, Sigma, St. Louis, Mo.) in ice-cold 0.5 mol/l citrate buffer (pH 4.5) was administered. […] Fifteen animals not receiving STZ, but injected with citrate buffer, were considered Normal.
Tear secretion was measured with Schirmer strips (Alcon Laboratories, Inc., Ft. Worth Tex.). […] The strip wetting length was measured to the nearest millimeter. Five minutes prior to administration of the Schirmer strip, animals received topical Proparacaine Hydrochloride Ophthalmic Solution 0.5% (Akorn, Inc., Buffalo Grove, Ill.).
(§3) Naltrexone hydrochloride (Sigma-Aldrich, Indianapolis, Ind.) was prepared in Vigamox (moxifloxacin hydrochloride ophthalmic solution, Alcon, Inc, Ft. Worth, Tex.) at a 10^−5 M concentration. NTX was given as a single drop (0.05 ml) to the central cornea of the right eye, with the lower eyelid held away from the eye to avoid overflow.
(§4) Insulin or vehicle was applied topically at 0800 hours.
(§5) For body weights and glucose measurements, Student two-tailed t-tests were utilized. With Schirmer tests and aesthesiometer measurements, one-way analysis of variance with Newman-Keuls post tests was employed because measurements were conducted on a random sample of two-thirds of the rats in each group.

The test system of data set [2] is DB rats. Briefly: Corneal sensitivity by aesthesiometer in STZ-diabetic (DB) rats after topical treatment. As to conditions: for reduction in corneal sensitivity from Normal animals: DB NTX group. Here is the method: as §1, §2
Corneal sensitivity was determined by an aesthesiometer (Cachet and Bonnet-Aesthesiometer, Boca Raton, Fla.). The values (g/mm^2) were determined directly from the protocol (and conversion table) supplied by the manufacturer.
Measurements of sensitivity were conducted prior to the Schirmer test.
as §3, §4, §5

A further data set deals with ocular surface. Briefly: Slit-lamp observations of the ocular surface. To be noted: during and after NTX administration. Here is the method: To examine general overall morphology and pathology (e.g., corneal edema, scarring), observations with a hand-held slit lamp (Zeiss HSO 10 Hand Slit Lamp, Dublin, Calif.) were conducted.
A further data set concerns Normal rats with Dry Eye. Kind of data set: Schirmer test of tear production in Normal rats with dry eye or "wet" eye. Here is the method: FIG. 7. Tear production of Normal rats with Dry Eye (upper panel) and “Wet” eye (lower panel). Animals were measured at baseline, and given 1 drop of topical 10^−6 M naltrexone hydrochloride (NTX). The horizontal black line represents mean baseline for comparisons. Data are expressed as mean (SEM) for 7 rats per group at each time point except 48 hr wherein n=3 rats.
Tear secretion was measured with Schirmer strips (Alcon Laboratories, Inc., Ft. Worth Tex.). A standard 17 mm long Schirmer strip was inserted into the lower cul-de-sac for 1 min. The strip wetting length was measured to the nearest millimeter. Five minutes prior to administration of the Schirmer strip, animals received topical Proparacaine Hydrochloride Ophthalmic Solution 0.5% (Akorn, Inc., Buffalo Grove, Ill.). Testing began 1 hour after the last drop of NTX or vehicle was administered, and continued every 24 hours thereafter.
Sprague-Dawley rats, males of 15-22 weeks of age, were tested for dry eye and therapeutic effects of opioid antagonists. […] All of these measures used a test called the Schirmer Test, as described in Example 1 (the same test used for humans).

The mark [3] stands for this setting: Normal rats with dry eye, one drop of NTX 10^−6 M.

`O=C1CC[C@@]2(O)[C@H]3Cc4ccc(O)c5c4[C@@]2(CCN3CC2CC2)[C@H]1O5` [NTX, 17-(cyclopropylmethyl)-4,5α-epoxy-3,14-dihydroxymorphinan-6-one]: the “reduction of tear production from Normal animals” value in the data set with DB rats [1] (DB NTX group, 96 hours after termination of 1 or 5 days of NTX q.i.d.) was 22-59%. Further, the “time to restoration of tear secretion” value with DB rats [1] (DB rats, 1 drop of topical NTX 10^−5 M in Vigamox) is at most 1 h. In addition, the “time for which Schirmer scores were comparable to Normal rats” value with DB rats [1] (DB rats, NTX q.i.d. for 1 or 5 days, from 1 hour after termination of drug exposure) is reported as “at least 3 days”. For the same compound, the “time for which tear production was similar to Normal animals” value in the data set with DB rats [1] (DB rats, after 1 drop of NTX) is recorded as “at least 48 hours”. For the same compound, the “duration of therapeutic effect” value with DB rats [1] (four drops (10^−6 M) over a twelve-hour period) is “at least 72 hours”; in the data set with Normal rats with Dry Eye (one to two drops (10^−6 M)), 48 h. For the same compound, the “duration of effect on dry eye” value in the data set with DB rats [1] (only one daily topical application) is “more than 2 days”. Besides, the “reduction in corneal sensitivity from Normal animals” value in the data set with DB rats [2] (120 hours after termination of 1 day of NTX q.i.d.) worked out at 1.8 fold; in the data set on DB rats [2] (192 hours after termination of 5 day NTX q.i.d.), 1.9 fold; with DB rats [2] (216 hours after termination of 5 day NTX q.i.d.), 1.7 fold. The “time for which corneal sensitivity stayed comparable to Normal” value in the data set with DB rats [2] (DB rats, 1 drop of NTX, entire period of the experiment) is 96 h. Also, in the data set with DB rats [2] (DB rats, 1 drop of topical NTX), the “time to restoration of corneal sensitivity” value is at most 1 h. The “time for which corneal sensitivity scores were comparable to Normal rats” value in the data set on DB rats [2] (DB rats, NTX q.i.d. for 1 or 5 days, from 1 h after termination of drug exposure) was “at least 4 days”. For the same compound, the “abnormalities of the ocular surface on slit-lamp examination” value in the data set with ocular surface is listed as “did not reveal any abnormalities”. Further, the “change in moisture of animals with "wet" eye” value in the data set on Normal rats with Dry Eye (Normal rats with "wet" eye, one drop of NTX) is on record as “no change in moisture”. Besides, the “persistence of "wet" eye” value in the data set on Normal rats with Dry Eye (setting [3]) is “maintained at 24 and 48 hr”. Further, the “time of return to dry eye” value with Normal rats with Dry Eye (setting [3]) is at most 72 h. The “time to reversal of dry eye” value in the data set on Normal rats with Dry Eye (Normal rats with dry eye, one drop of NTX 10^−6 M in VIGAMOX) is “within an hour”. Besides, the “time to reversal of dry eye conditions” value in the data set on Normal rats with Dry Eye (one to two drops (10^−6 M)) is “within an hour or so”.
In the case of “INS: Bovine insulin (Sigma-Aldrich) prepared in Vigamox, utilized at a concentration of 1 U”, in the data set on DB rats [1] (DB INS group, at 1, 24 and 48 hour time points), the “decrease of Schirmer score from Normal rats” value is reported as 35-58%. Also, the “effect on tear production” value with DB rats [1] (DB rats, 1 drop of topical INS (1 U)) was “no effect”. In addition, in the data set on DB rats [2] (DB rats, 1 drop of topical INS, 1, 24 and 48 h), the “corneal sensitivity compared with Normal animals” value is “did not differ from the Normal animals”.

The values above are taken from patent publication US8314118B2, “Methods and compositions for treating dry eye” (priority 2009, dated 2012).
